According to US4755517A, “Derivatives of xanthine, pharmaceutical compositions and methods of use therefor” (Warner-Lambert Company, priority 1986, dated 1988):

Assays:
adenosine A1 receptor = biological target: T1, adenosine A1 receptor (Rattus norvegicus, UniProt P25099); test: [3H]-N6-cyclohexyladenosine binding to rat whole brain membranes (A1 affinity, RBA-1)
T1 construct: from tissue; host or cells: rat whole brain membranes
T1 sequence (P25099 1-326): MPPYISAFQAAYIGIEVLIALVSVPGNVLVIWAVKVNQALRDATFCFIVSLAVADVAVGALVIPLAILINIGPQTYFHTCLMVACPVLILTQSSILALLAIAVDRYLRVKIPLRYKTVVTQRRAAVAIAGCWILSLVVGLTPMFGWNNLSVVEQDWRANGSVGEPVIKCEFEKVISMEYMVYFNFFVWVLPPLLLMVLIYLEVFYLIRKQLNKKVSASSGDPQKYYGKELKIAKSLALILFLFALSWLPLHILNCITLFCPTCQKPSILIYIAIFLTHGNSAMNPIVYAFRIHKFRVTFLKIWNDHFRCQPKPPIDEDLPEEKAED

adenosine A2 receptor = biological target: T2, adenosine A2 receptor (Rattus norvegicus, UniProt P30543); test: [3H]-NECA binding to rat striatal membranes (A2 affinity, RBA-2)
T2 construct: from tissue; host or cells: rat striatal membranes
T2 sequence (P30543 whole entry): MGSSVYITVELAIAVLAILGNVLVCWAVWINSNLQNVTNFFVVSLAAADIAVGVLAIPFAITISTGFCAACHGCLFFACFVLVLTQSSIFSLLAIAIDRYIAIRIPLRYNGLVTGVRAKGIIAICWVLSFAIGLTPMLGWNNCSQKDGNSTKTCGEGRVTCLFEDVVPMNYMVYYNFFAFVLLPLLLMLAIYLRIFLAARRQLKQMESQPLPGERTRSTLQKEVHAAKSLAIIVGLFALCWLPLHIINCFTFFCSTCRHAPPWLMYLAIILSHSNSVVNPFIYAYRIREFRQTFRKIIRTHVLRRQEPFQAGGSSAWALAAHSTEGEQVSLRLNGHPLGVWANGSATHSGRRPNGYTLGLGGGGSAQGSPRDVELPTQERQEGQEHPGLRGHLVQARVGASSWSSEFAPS

mouse locomotor activity = test: Locomotor activity of mice, drug alone; assay type: in vivo, Male Swiss-Webster mice; settings: for percent suppression of locomotion: alone; for effect on spontaneous exploratory activity (in words): mice
Description: Suspensions are ultrasonicated for 3 minutes.

Compound | IC50 (adenosine A1 receptor) [nM] | IC50 (adenosine A2 receptor) [nM] | percent suppression of locomotion (mouse locomotor activity; CV-1808 8 mg/kg IP) [%] | effect on spontaneous exploratory activity (in words) (mouse locomotor activity) | percent suppression of locomotion (mouse locomotor activity; CPA 2 mg/kg IP) [%]
CCCn1c(=O)c2[nH]c(C3CCSC3)nc2n(CCC)c1=O (stereo not shown) [Example 1, 1,3-Dipropyl-8-(3-tetrahydrothienyl)xanthine] | 2 | 622 | – | – | –
Nc1nc(Nc2ccccc2)nc2c1ncn2[C@@H]1O[C@H](CO)[C@@H](O)[C@H]1O [CV-1808, 2-anilinoadenosine] | – | – | 83 | inhibition of spontaneous exploratory activity | –
OC[C@H]1O[C@@H](n2cnc3c(NC4CCCC4)ncnc32)[C@H](O)[C@@H]1O [CPA, N^6 -cyclopentyladenosine] | – | – | – | inhibition of spontaneous exploratory activity | 94
CCCn1c(=O)c2[nH]c(C3CCCO3)nc2n(CCC)c1=O (stereo not shown) [Example 2, 1,3-Dipropyl-8-(2-tetrahydrofuranyl)xanthine] | 20 | 3100 | – | – | –

Further lines, with some results ahead:

IC50 (adenosine A1 receptor) [nM] | IC50 (adenosine A2 receptor) [nM] | Compound | percent suppression of locomotion (mouse locomotor activity; CV-1808 8 mg/kg IP) [%] | effect on spontaneous exploratory activity (in words) (mouse locomotor activity) | percent suppression of locomotion (mouse locomotor activity; CPA 2 mg/kg IP) [%]
28 | 4650 | CCCn1c(=O)c2[nH]c(C3CCOC3)nc2n(CCC)c1=O (stereo not shown) [Example 3, 1,3-Dipropyl-8-(3-tetrahydrofuranyl)xanthine] | – | – | –
88 | – | CCCn1c(=O)c2[nH]c(C3CCCS3)nc2n(CCC)c1=O (stereo not shown) [Example 5, 1,3-Dipropyl-8-(2-tetrahydrothienyl)xanthine] | – | – | –
400 | 2000 | Cn1c(=O)c2nc(C3CCOC3)[nH]c2n(C)c1=O (stereo not shown) [Example 4] | – | – | –
